Test results published in patent US5989596A, “Compositions comprising a depigmenting agent consisting of sulfites and metabisulfites and plant extracts for use in inhibiting melanogenesis or for depigmenting” (Coletica, priority 1997, dated 1999).

What was measured:
[1] = Organoleptic (smell) and stability tests on storage, 4 weeks at 45° C.; format: physicochemical; settings: pH 6.5, 4 weeks at 45° C.
Procedure: Organoleptic tests have even been carried out on 5% sodium sulfite solutions or with 10% of a mulberry extract or 10 or with 20% with a lemon extract. These tests were led over 4 weeks at 45° C. at pH 5.5 and 6.5.
Also, organoleptic tests are then carried out on 5% sodium metabisulfite solutions with or without either 20% of a saxifrage extract or 10% of a grapefruit extract. These tests were led over 4 weeks at 45° C. at pH 5.5 and 6.5.
Organoleptic tests were also carried out on 5% potassium sulfite solutions with or without either 20% of a grape extract, or 10% of an oughon extract. It is to be noted that oughon is also called Scutelaria. These tests were led over 4 weeks at 45° C. at pH 5.5 and 6.5.
Organoleptic tests are then carried out on 5% potassium metabisulfite solutions with or without either 10% of a saxifrage extract, or 5% of an oughon extract +10% of a grapefruit extract. These tests were also led over 4 weeks at 45° C. at pH 5.5 and 6.5.

isolated tyrosinase = experiment: In vitro test of the inhibition of isolated tyrosinase (rate of dopachrome formation from L-Dopa, 475 nm); format: biochemical
Excerpt: It is known that tyrosinase is capable of catalyzing the formation of L-Dopaquinone and then dopachrome from L-Dopa. Now, dopachrome is a colored compound whose appearance is possible to follow by UV visible spectrophotometry at 475 nm. The use of an active capable of modifying the enzymatic activity manifests itself by a variation of the rate of appearance of this colored molecule.
The ratio of the rates of formation of dopachrome enable precisely determining the activations or the inhibitions obtained with the different molecules tested.
The anti-tyrosinase activity was measured, for various concentrations of this composition, by simple dilution with demineralized water.

human melanocytes = settings: J. Soc. Cosmeti. Chem. 42, 361-368 (1991); cited from earlier work
[2] = molecular target: T1, endogenous tyrosinase in melanocytes of human skin explants (Homo sapiens, UniProt P14679); experiment: Ex vivo tissue model on human skin explant, histochemical L-DOPA reaction (anti-tyrosinase activity); format: cell-based; settings: 0.55% (w/v), with L-DOPA 0.05 M, 15 hours at 37° C.
T1 construct: oxidation of exogenous L-DOPA by endogenous tyrosinase; from tissue; host or cells: human abdominal skin explants from plastic surgery (melanocytes)
T1 sequence (P14679 19-529): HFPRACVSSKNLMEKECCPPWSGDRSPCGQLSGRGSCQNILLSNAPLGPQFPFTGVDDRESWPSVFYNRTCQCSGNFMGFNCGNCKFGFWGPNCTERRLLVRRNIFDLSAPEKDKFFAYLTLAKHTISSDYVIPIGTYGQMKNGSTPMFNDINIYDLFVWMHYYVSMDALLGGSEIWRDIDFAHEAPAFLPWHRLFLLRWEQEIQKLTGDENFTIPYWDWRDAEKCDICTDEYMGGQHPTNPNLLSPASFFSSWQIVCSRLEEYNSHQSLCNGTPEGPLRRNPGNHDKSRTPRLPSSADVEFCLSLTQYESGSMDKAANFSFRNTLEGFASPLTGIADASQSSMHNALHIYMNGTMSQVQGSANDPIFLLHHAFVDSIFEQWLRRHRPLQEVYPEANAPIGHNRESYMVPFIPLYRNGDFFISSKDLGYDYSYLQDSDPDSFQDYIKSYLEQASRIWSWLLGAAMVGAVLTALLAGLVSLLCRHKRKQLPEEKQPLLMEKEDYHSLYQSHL
Procedure: The oxidation of L-Dopa by the tyrosinase produces, in the melanocytes, a black pigment precursor of melanin which is easily detectable by optical microscopy with white light. The tyrosinase activity is determined by the intensity of the calorimetric reaction obtained.
A positive control and a negative control are also carried out in parallel.
The various products in the study are incubated in the presence of L-DOPA (0.05 M) for 15 hours at 37° C.
After fixing and inclusion in paraffin, the sections are colored with hemalun/eosin/saffron and with cresyl violet, they are then observed in white light by optical microscopy.
The tyrosinase activity is determined by the intensity of the calorimetric reaction obtained.

SMILES	smell (organoleptic test) [1]	Results (inhibition) of tyrosinase (isolated tyrosinase; concentration level 0.01%)	Results (inhibition) of tyrosinase (isolated tyrosinase; concentration level 0.1%) [%]	Results (inhibition) of tyrosinase (isolated tyrosinase; concentration level 1%) [%]	Results (inhibition) of tyrosinase (isolated tyrosinase; concentration level 10%) [%]	tyrosinase inhibition (in words) (isolated tyrosinase; concentration 0.01%)	IC50 (concentration for which half of the cells placed in culture are no longer living) (human melanocytes) [mg/mL]	inhibition of the formation of melanic pigments [2]
O=S([O-])[O-].[K+].[K+] [potassium sulfite]	very strong smell	more than 80%	98.10	92.7	100			
O=S([O-])S(=O)(=O)[O-].[K+].[K+] [potassium metabisulfite]		more than 90%	93.63	100	100			
O=S([O-])S(=O)(=O)[O-].[Na+].[Na+] [sodium metabisulfite]	very strong smell		100	100	100	almost total		
O=S([O-])[O-].[Na+].[Na+] [sodium sulfite]		93.7%	100	100	100			
O=C1O[C@H]([C@@H](O)CO)C(O)=C1O [ascorbic acid]							0.88	
Oc1ccc(O)cc1 [hydroquinone]								totally inhibits
